Reference: patent publication US20110263693A1, “CELASTROL, GEDUNIN, AND DERIVATIVES THEREOF AS HSP90 INHIBITORS” (DANA-FARBER CANCER INSTITUTE, INC., priority 2006, published 2011)

Columns and labels:
[1] = tested on: androgen signaling signature in LNCaP cells; assay: GE-HTS androgen signaling signature assay / screen; details: for GE-HTS screen # replicates that score as the androgon deprived state (n = 3): KNN / GE-HTS screen # replicates that score as the androgon deprived state (n = 3): Naïve Bayes classifier (P < 0.05) / GE-HTS screen # replicates that score as the androgon deprived state (n = 3): unweighted summed score (P < 0.05) / GE-HTS screen # replicates that score as the androgon deprived state (n = 3): weighted summed score (P < 0.05): LNCaP, 1 nM R1881 plus compound ~20 μM, 24 hr, count of 3 replicates
LNCaP cells = assay: Viability screen, luminescent ATP quantitation assay; details: 1 nM R1881 plus compound ~20 μM, 3 days
[2] = control wells, 1 nM R1881 plus 10 μM casodex, count of n = 336

Compound	GE-HTS screen # replicates that score as the androgon deprived state (n = 3): KNN [1]	GE-HTS screen # replicates that score as the androgon deprived state (n = 3): Naïve Bayes classifier (P < 0.05) [1]	GE-HTS screen # replicates that score as the androgon deprived state (n = 3): unweighted summed score (P < 0.05) [1]	GE-HTS screen # replicates that score as the androgon deprived state (n = 3): weighted summed score (P < 0.05) [1]	viability screen: viability (% [ATP] normalized to R1881-treated control) (LNCaP cells) [%]	GE-HTS screen # replicates that score as the androgon deprived state: KNN [1, 2]	GE-HTS screen # replicates that score as the androgon deprived state: Naïve Bayes classifier (P < 0.05) [1, 2]	GE-HTS screen # replicates that score as the androgon deprived state: unweighted summed score (P < 0.05) [1, 2]	GE-HTS screen # replicates that score as the androgon deprived state: weighted summed score (P < 0.05) [1, 2]
CC(=O)O[C@H]1CC[C@]2(C)C(C[C@@H](OC(C)=O)[C@]3(C)C4=CC(=O)O[C@H](c5ccoc5)[C@@]4(C)CCC23)C1(C)C (stereo partly drawn) [3-deoxo-3beta-acetoxydeoxydihydrogedunin]	3	3	3	3	51.0				
CC(C)(C)c1cc(/C=C(\C#N)C(N)=S)cc(C(C)(C)C)c1O [AG-879, reference compound]	3	2	2	2					
C=C/C(C)=C\CC1C(C)(O)CCC2C(C)(C)CCCC21C (centres unmarked) [abienol]	2	1	3	3					
COc1ccc(C(C)C(=O)c2ccc(O)cc2O)cc1 (centres unmarked) [angolensin]	3	3	3	3					
CC(O)(CS(=O)(=O)c1ccc(F)cc1)C(=O)Nc1ccc(C#N)c(C(F)(F)F)c1 (centres unmarked) [casodex, bicalutamide, reference compound]						283	268	257	261
CCCCCCCCCCCCCCCC[N+](C)(C)C.[Br-] [cetrimonium bromide, reference compound]	3	3	0	0	109.7				
CC1(C)C(=O)C=C[C@]2(C)[C@H]3CC[C@@]4(C)[C@H](c5ccoc5)OC(=O)[C@H]5O[C@]54[C@]3(C)C(=O)C[C@@H]12 [deacetoxy-7-oxogedunin]	3	3	3	3	69.0				
CC(=O)O[C@@H]1CC2C(C)(C)CCC[C@]2(C)C2CC[C@]3(C)C(=CC(=O)O[C@H]3c3ccoc3)[C@@]21C (some centres unmarked) [deoxodeoxydihydrogedunin]	0	3	2	2					
CC(=O)O[C@@H]1C[C@H]2C(C)(C)C(=O)C=C[C@]2(C)[C@H]2CC[C@]3(C)C(=CC(=O)O[C@H]3c3ccoc3)[C@@]21C [deoxygedunin]	2	2	3	3	63.3				
CC1(C)C(=O)CC[C@]2(C)[C@H]3CC[C@]4(C)C(=CC(=O)O[C@H]4c4ccoc4)[C@]3(C)[C@H](O)C[C@@H]12 [dihydro-7-desacetyldeoxygedunin]	3	2	2	1					
CN(C)CCOC(c1ccccc1)c1ccccc1.Cn1c(=O)c2[nH]c(Cl)nc2n(C)c1=O [dimenhydrinate, reference compound]	3	3	0	0					
COP(=S)(OC)Oc1ccc([N+](=O)[O-])cc1 [methyl parathione]	3	1	3	0					
CC[C@@]1([C@@H]2O[C@@H]([C@H]3O[C@@](O)(CO)[C@H](C)C[C@@H]3C)C[C@@H]2C)CC[C@H]([C@]2(C)CC[C@]3(C[C@H](O)[C@@H](C)[C@@H]([C@@H](C)[C@@H](OC)[C@H](C)C(=O)O)O3)O2)O1 [monensin A, reference compound]	2	2	0	0	113.6				
C[C@@H]1[C@H](O)[C@@H](C)/C=C/C=C/CC/C=C/C=C/C=C/C=C/C(O[C@H]2O[C@H](C)[C@@H](O)[C@H](N)[C@@H]2O)CC2O[C@](O)(CC(O)C(O)CCC(O)CC(O)CC(O)CC(=O)O[C@H]1C)CC(O)C2C(=O)O (some centres unmarked) [nystatin, reference compound]	2	2	0	0	74.5				
CC(=O)[C@H]1CC[C@H]2[C@@H]3CC=C4C[C@@H](O)CC[C@]4(C)[C@H]3CC[C@]12C [pregnenolone, reference compound]	3	2	0	0	91.5				
COC(=O)[C@H](O)[C@H]1C(C)(C)[C@H](OC(C)=O)[C@@H]2CC3=C4CC(=O)O[C@@H](c5ccoc5)[C@]4(C)CC[C@@H]3[C@@]1(C)C2=O [swietenolide-3-acetate]	2	2	2	2					
avermectin B1 [reference compound]	3	2	2	2					
dihydrocelastryl diacetate	2	0	3	0	50.7				
estrone hemisuccinate [reference compound]	3	3	0	1	71.9				
methylnortichexanthone	3	2	2	2					
